Measurements reported in ChEMBL document CHEMBL4715839, “Structure-activity relationships for binding of 4-substituted triazole-phenols to macrophage migration inhibitory factor (MIF)” (Eur J Med Chem, 2020).

What was measured:
[1] = biological target: T1, Macrophage migration inhibitory factor (Homo sapiens, UniProt P14174); experiment: (§1) Inhibition of C-terminal His-tagged recombinant human MIF tautomerase activity expressed in Escherichia coli BL21 using 4-hydroxyphenyl pyruvic acid as substrate preincubated for 15 mins followed by substrate addition and measured for 10 mins in presence of 0.5 mM EDTA by UV absorbance analysis
T1 sequence (P14174 whole entry): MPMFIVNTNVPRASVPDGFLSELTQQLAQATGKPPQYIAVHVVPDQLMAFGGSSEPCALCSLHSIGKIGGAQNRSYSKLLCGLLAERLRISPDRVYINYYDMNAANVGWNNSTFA

[2] = biological target: T1, Macrophage migration inhibitory factor; experiment: as §1, with “absorbance based Cheng-Prusoff equation” for “absorbance”
[3] = Solubility of compound in pH 7.4 PBS buffer by shake-flask method; format: physicochemical
[4] = biological target: T1, Macrophage migration inhibitory factor; experiment: Inhibition of recombinant human MIF tautomerase activity expressed in Escherichia coli using 4-hydroxyphenyl pyruvic acid as substrate preincubated for 30 mins followed by substrate addition and measured for 175 secs
[5] = biological target: T1, Macrophage migration inhibitory factor; experiment: as §1, with “absence” for “presence”, “of” for “of 0.5 mM”, “absorbance based Cheng-Prusoff equation” for “absorbance”
[6] = Solubility of compound at >=50 uM; format: physicochemical
[7] = biological target: T1, Macrophage migration inhibitory factor; experiment: Binding affinity to RED-Tris-NTA-labelled C-terminal His-tagged recombinant human MIF tautomerase activity expressed in Escherichia coli BL21 by microscale thermophoresis assay

IC50 [1] [µM]	Ki [2] [µM]	Compound	other results
28	19	Cc1ccc(C(=O)NCc2cn(-c3ccc(O)cc3)nn2)s1	
47	32	O=C(CCc1cn(-c2ccc(O)cc2)nn1)Nc1ccccc1	
		Oc1ccc(-n2cc(-c3ccc4ccccc4n3)nn2)cc1	solubility thermodynamic [3]: 2.2 µg/mL
10	6.9	O=C(NCc1cn(-c2ccc(O)cc2)nn1)c1cc2ccccc2[nH]1	
38	26	O=C(NCc1cn(-c2ccc(O)cc2)nn1)c1ccc(Br)o1	
41	28	O=C(NCc1cn(-c2ccc(O)cc2)nn1)c1cccs1	
33	23	O=C(NCc1cn(-c2ccc(O)cc2)nn1)c1ccccc1	
10	6.9	CCCCCc1cn(-c2ccc(O)cc2)nn1	
43	30	O=C(NCc1cn(-c2ccc(O)cc2)nn1)c1ccc[nH]1	
7.2	5	Oc1ccc(-n2cc(-c3ccccn3)nn2)cc1	Ki [4]: 8.8 µM; Ki [5]: 2.9 µM
33	23	COC(=O)CCCc1cn(-c2ccc(O)cc2)nn1	
53	36	O=C(NCc1cn(-c2ccc(O)cc2)nn1)c1ccc(F)cc1	
	0.96	O=C(NCc1cn(-c2ccc(O)c(F)c2)nn1)c1cc2cc(Cl)ccc2[nH]1	solubility thermodynamic [3]: 28 µM; solubility [6]: Insoluble
26	17	Oc1ccc(-n2cc(C3CCCCC3)nn2)cc1	
4.8	3.3	O=C(NCc1cn(-c2ccc(O)c(F)c2)nn1)c1cc2ccccc2[nH]1	solubility thermodynamic [3]: 41.4 µM; Kd [7]: 3.63 µM
9.5	6.5	C#CCCCCc1cn(-c2ccc(O)cc2)nn1	
62	43	O=C(Cc1cc2ccccc2[nH]1)NCc1cn(-c2ccc(O)cc2)nn1	
